Here are results for three compounds from patent US12692322B2, “KRAS specific antibodies and uses thereof” (Genentech, Inc., priority 2020, dated 2026).

The target in assay [1] is T1, alkylated KRas^G12C in H1171 KRas^G12C cells (Homo sapiens, UniProt P01116, G12C).
T1 construct: Immunoprecipitation of alkylated and un-alkylated KRas^G12C in H1171 KRAS^G12C mutant cancer cells; endogenous in cells; host or cells: H1171 (HCC1171) KRAS G12C mutant cancer cells
Nature of the assay: Immunofluorescence and high content imaging. The assay is classed as cell-based. The settings on record: treatment for 16 hours.
Description: Immunofluorescence and High Content Imaging Cells (20000 to 40000 cells per well depending on the cell line) were seeded into Poly-L-Lysine Coated 96-well plates (Cell Carrier Ultra; Perkin Elmer) and supplemented with complete medium (RPMI with 2% L-Glutamine and 10% FBS). The next day, cells were treated with KRas^G12C inhibitors at indicated concentrations and incubated for the indicated length of time. At the end of treatment, cells were washed twice with cold 1×PBS, fixed with 3% paraformaldehyde for 20 minutes at room temperature, washed for 10 minutes with 1×PBS, and the PFA was quenched with 50 mM NH4Cl for 10 minutes at room temperature. Cells were washed again with 1×PBS twice for 5 minutes, then permeabilized with 1× Perm/Wash Buffer (BD, Fisher Scientific) for 20 minutes at room temperature. Cells were then incubated with primary antibody diluted in Perm/Wash buffer at indicated concentration for 2 hours at room temperature. Cells were then washed three times with Perm/Wash buffer for 10 minutes each, and the incubated with conjugated fluorescence secondary antibody for 20 to 60 minutes (Alexa488 anti-human and Alexa647 anti-rabbit or anti-rat at 1:500 from Jackson ImmunoResearch Laboratories Inc.) 100 ml of 300 nM DAPI was added to each well for 15 minutes and then cells were washed twice with Perm/Wash buffer, and once with 1×PBS prior to imaging. […]

For assay [2], the system named is SWII pocket of KRas^G12C-GDP and KRas^WT-GDP. Kind of assay: SPR of SWII ligands with SWII-blocked reference, with and without 2H11. The assay is classed as binding, human. On the procedure:
Surface plasmon resonance (SPR) experiments with 2H11 anti-KRas antibody. A series S SA (streptavidin) chip was inserted into a Biacore T200 (GE Health Sciences). The instrument was primed into running buffer (50 mM HEPES pH 7.5, 150 mM NaCl, 0.2% (w/v) PEG-3350, 0.1% CM-dextran (w/v), 0.1 mM TCEP, 10 mM MgCl2, 100 nM GDP, and 2% (v/v) DMSO). KRas^G12C was pre-blocked at the 12 position with covalent binding KRas^G12C alkylator was captured to yield 2000-2500 response units (RU) on flow channel 1 (FC1) and FC3 to serve as the reference for KRas^WT and KRas^G12C and allow affinity measurement exclusively at the Switch II (SWII) pocket. KRas^WT or KRas^G12C was captured on FC2 and FC4 within 100 RU of the reference channel capture level and data was collected in FC 2-1, FC 4-3 mode. […] Analyte samples were tested […] in 2-fold dose response with 20-30 second contact time and 30 second dissociation. Data was analyzed in with a 1:1 affinity model in Biacore S200 Evaluation Software 1.0 and figures were made in Scrubber 2 (Biologic Software) (FIG. 5A and FIG. 5B).

For the compound `C=CC(=O)N1CCN(c2ncnc3c(F)c(-c4c(O)cccc4F)c(Cl)cc23)CC1` (atropisomer, axis not shown) [ARS-1620, (R)-1-(4-(6-chloro-8-fluoro-7-(2-fluoro-6-hydroxyphenyl)quinazolin-4-yl)piperazin-1-yl)prop-2-en-1-one], in assay [1], the “alkylation of KRas^G12C by IF and immunoblot analysis” value is on record as “almost complete alkylation”. The “affinity of SWII covalent molecules in the presence versus absence of 2H11 anti-KRas antibody” value in assay [2] was “greatly enhanced”.

Take `C=CC(=O)N1CCN(c2ncnc3cc(-c4c(C)ccc5[nH]ncc45)c(Cl)cc23)CC1` (atropisomer, axis not shown) [GNE-1952, (R)-1-(4-(6-chloro-7-(5-methyl-TH-indazol-4-yl)quinazolin-4-yl)piperazin-1-yl)prop-2-en-1-one]: the “affinity of SWII covalent molecules in the presence versus absence of 2H11 anti-KRas antibody” value in assay [2] is given as “greatly enhanced”.

Take `C=CC(=O)N1CC(N2CCN(C(=O)CNc3cc(C4(C)CC4)c(Cl)cc3O)CC2)C1` [ARS-853, 1-(3-(4-((4-chloro-2-hydroxy-5-(1-methylcyclopropyl)phenyl)glycyl)piperazin-1-yl)azetidin-1-yl)prop-2-en-1-one]: in assay [2], the “affinity of SWII covalent molecules in the presence versus absence of 2H11 anti-KRas antibody” value is reported as “greatly enhanced”.
